Measured values from patent US11123292B2, “Use of biocompatible microdroplets for the treatment of atherosclerosis, heart disease and stroke” (priority 2014, dated 2021).
Where two headings read alike, the source gives them in different places.

Legend:
[1] = Relative Energy Difference (RED) with cholesterol, calculated from HSP; conditions: for Ra^2 versus cholesterol: Eq. 1; for Relative Energy Difference (RED) with cholesterol: RED=Ra/Ro, Ro of cholesterol 12.6
Procedure: The extent to which two compounds will dissolve each other can be quantified using the equations developed by Hansen: (Ra)^2=4(δd2−δd1)^2+(δp2−δp1)^2+(δh2−δh1)^2 Eq. (1) RED=Ra/Ro Eq. (2)
Equation 1 calculates the relative magnitude difference of the three Hansen parameters of the two compounds to arrive at Ra. […] Equation 2 allows one to calculate the Relative Energy Difference (RED) of the solvent and the material we are trying to dissolve, by dividing Ra by Ro. Ra was calculated in Equation 1 and measures the magnitude of the difference of the HSP values of the two compounds. The units for the HSP parameters δd, δp, δh are MPa^1/2. […] The Relative Energy Difference (RED) is a dimensionless number which quantifies how well a solvent will dissolve a solute. For an RED>>1 the compounds will not dissolve. For an RED˜1, there will be some dissolution. For an RED<1 there will be a considerable amount of dissolution. Essentially, the smaller RED value, the more solute will dissolve into the solvent, with RED=1 being a threshold where a given solute is starting to be soluble in a given solvent.
Referring now to FIG. 6, this diagram provides a flow chart showing how the biocompatible microdroplet solvent emulsion can be formulated. […] For an example of compounds which might be included in 400, please refer to Tables 1, 2, 3 and 4. However, this list of tables is by no means exhaustive and other compounds could be added to this list. The number of compounds selected can comprise of 1, 2, 3 or as many as are deemed necessary, which is symbolized by the variable n. The HSP parameters of a homogenous mixture of compounds are the weighted average of the HSP parameters of the individual components. […] Ideally, it is possible to formulate a solution such that the resultant RED of the mixture is smaller than the RED of any of the individual components.
The δdm, δpm, δhm calculated using Eq. 9 are the Hansen solubility parameters of the homogenous mixture, where m denotes mixture, and fi depicts the fraction of each of the n components used to fabricate the biocompatible solvent. Equation 10 can be used to calculate the RED of the final mixture, where Ro is the interaction radius of the cholesterol, or other component of arterial plaque one desires to dissolve using the biocompatible microdroplets and […] represents the Hansen solubility constants of cholesterol (dispersion, polar and hydrogen bonding components) or the HSP parameter of the arterial plaque which is being targeted.

[2] = single compound; cited from earlier work
[3] = Dissolving cholesterol by microdroplets in whole blood; conditions: whole blood
Source text: (§1) To effectively dissolve arterial plaque in-vivo it is very important that the biocompatible solvent be sufficiently insoluble in blood to allow a small discrete microdroplet to travel through the blood stream, from the injection point, to the plaque which is being treated. If the biocompatible solvent dissolves within the blood, such as an alcohol, the solubility parameters of the resultant mixture will be very nearly identical to that of blood and will not dissolve cholesterol or arterial plaque. Conversely, if a discrete microdroplet of the biocompatible solvent makes contact with the plaque, then the cholesterol molecule in the plaque will be surrounded by multiple molecules of the biocompatible solvent, which have similar solubility parameters as the cholesterol, and the cholesterol will be drawn away from the plaque and into the droplet. […] An organic salt, Esters, an organo-metallic compound could also be used as the main component or an addition to the biocompatible microdroplet solvent means. Essentially any organic molecule which can be administered intravenously with acceptable side effects, is sufficiently insoluble in blood to travel as a discrete microdroplet without being dissolved prior to reaching arterial plaque and which is capable of dissolving cholesterol, cholesterol esters or other materials within the arterial plaque, could potentially be used.
(§2) 1,8-cineole is classified as a cyclic ether and a monoterpenoid. […] This chemical gives certain fruits such as apples and strawberries their fruity taste, and is used as an additive in bubble gums for this purpose. […] It is used as a fragrance or flavouring agent. […] It is produced natuarally by the organism, and is found in abundance in shark liver oil.

[4] = cited from earlier work; for LD50 dose: route not stated
[5] = cited from earlier work
[6] = cited from earlier work; remark: listed apart in the source
[7] = Water insoluble solvents tested for dissolving cholesterol / arterial plaque; conditions: medium not stated
Source text: as §1

[8] = Dissolving cholesterol by microdroplets in a dilute solution in water
Source text: as §2

Structure (SMILES) | Relative Energy Difference (RED) with cholesterol [1] | δd London dispersion HSP parameter [2] [MPa^1/2] | δh hydrogen bonding HSP parameter [2] [MPa^1/2] | δp polarity HSP parameter [2] [MPa^1/2] | efficacy of microdroplets at dissolving cholesterol in whole blood [3] | other results
c1ccc(Oc2ccccc2)cc1 [Diphenyl ether] | 0.32 | 19.5 | 5.8 | 3.4 | excellent results | Ra^2 versus cholesterol [1]: 17; LD50 dose [4]: 2.85 g/kg of body weight; excreted in the urine ([5]; once absorbed): 90%
Cc1ccc(C(C)C)cc1O [Carvacrol] | 0.64 | 16.5 | 11.4 | 3.2 | excellent results | solubility in water / water based blood [6]: insoluble in water
CCOC(=O)OCC [Diethyl carbonate] | – | 16.6 | 6.1 | 3.1 | – | LD50 ([4]; oral): 8500 mg/kg
O=C(OCc1ccccc1)c1ccccc1 [Benzyl benzoate] | – | 20 | 5.2 | 5.1 | – | Ra^2 versus cholesterol [1]: 24; LD50 dose [4]: 1.68 g/kg
O=C(O)c1ccccc1 [Benzoic acid] | – | – | – | – | – | time to excretion in the urine ([5]; after ingestion): ≤ 24 h
CC(=O)c1ccccc1 [Acetophenone] | 0.66 | 19.6 | 3.7 | 8.6 | – | solubility in water / water based blood ([6]; in words): somewhat soluble in water
CCCCC/C=C\C/C=C\CCCCCCCC(=O)O [Linoleic acid] | – | – | – | – | – | result of solvent testing (dissolving cholesterol) [7]: very promising results
C=C(C)[C@H]1CC=C(C)CC1 [Limonene] | – | 17.2 | 4.3 | 1.8 | the cholesterol sample seemed to accumulate precipitate and swell | dissolving cholesterol in a dilute solution in water [8]: dissolved cholesterol
CC/C=C\C/C=C\C/C=C\CCCCCCCC(=O)O [Alpha-linolenic acid] | – | – | – | – | – | result of solvent testing (dissolving cholesterol) [7]: very promising results
